Measurements as given in ChEMBL document CHEMBL5579880, “Rational Design of a Novel 6H-Benzo[c]chromen Series as Selective PI3Kα Inhibitors” (J Med Chem, 2024).

Legend:
[1] = molecular target: T1, Phosphatidylinositol 4,5-bisphosphate 3-kinase catalytic subunit delta isoform (Homo sapiens, UniProt O00329); experiment: Inhibition of PI3Kdelta (unknown origin) incubated for 60 mins in presence of ATP by ADP-Glo reagent assay relative to control
T1 sequence (O00329 whole entry): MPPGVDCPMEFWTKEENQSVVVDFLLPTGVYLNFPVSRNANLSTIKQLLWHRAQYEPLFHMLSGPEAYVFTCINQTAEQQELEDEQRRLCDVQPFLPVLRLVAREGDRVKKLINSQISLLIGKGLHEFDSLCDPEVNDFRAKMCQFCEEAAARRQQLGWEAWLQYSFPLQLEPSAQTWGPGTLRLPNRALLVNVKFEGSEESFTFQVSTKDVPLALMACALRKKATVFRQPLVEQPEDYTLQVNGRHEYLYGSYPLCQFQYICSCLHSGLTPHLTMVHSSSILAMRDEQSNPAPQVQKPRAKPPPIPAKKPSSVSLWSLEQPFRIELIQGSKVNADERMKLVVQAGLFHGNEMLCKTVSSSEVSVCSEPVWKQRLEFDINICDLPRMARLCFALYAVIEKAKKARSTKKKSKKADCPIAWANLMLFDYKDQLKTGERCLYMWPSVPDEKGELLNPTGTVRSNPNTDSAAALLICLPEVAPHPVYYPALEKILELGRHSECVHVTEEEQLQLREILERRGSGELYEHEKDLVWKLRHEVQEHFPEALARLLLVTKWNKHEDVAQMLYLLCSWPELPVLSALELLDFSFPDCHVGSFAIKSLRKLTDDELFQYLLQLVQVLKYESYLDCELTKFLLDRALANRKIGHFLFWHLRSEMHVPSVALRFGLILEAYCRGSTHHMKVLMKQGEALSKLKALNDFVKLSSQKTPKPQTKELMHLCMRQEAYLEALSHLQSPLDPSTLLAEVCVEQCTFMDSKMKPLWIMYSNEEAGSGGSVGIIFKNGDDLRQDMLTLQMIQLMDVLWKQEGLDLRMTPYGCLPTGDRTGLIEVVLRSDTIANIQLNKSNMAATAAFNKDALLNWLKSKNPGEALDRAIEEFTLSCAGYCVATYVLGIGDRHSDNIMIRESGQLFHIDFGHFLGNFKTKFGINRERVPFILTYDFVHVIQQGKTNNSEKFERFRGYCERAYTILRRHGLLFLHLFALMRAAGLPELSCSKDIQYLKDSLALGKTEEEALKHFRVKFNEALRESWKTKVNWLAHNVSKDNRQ

[2] = molecular target: Phosphatidylinositol 4,5-bisphosphate 3-kinase catalytic subunit gamma isoform (Homo sapiens, UniProt P48736); experiment: Inhibition of PI3Kgamma (unknown origin) incubated for 60 mins in presence of ATP by ADP-Glo reagent assay
[3] = molecular target: Phosphatidylinositol 4,5-bisphosphate 3-kinase catalytic subunit beta isoform (Homo sapiens, UniProt P42338); experiment: Inhibition of PI3Kbeta (unknown origin) incubated for 60 mins in presence of ATP by ADP-Glo reagent assay
T47D = experiment: cells; settings: Homo sapiens, 168 h
Description: Antiproliferative activity against human T47D cells assessed as inhibition of cell growth incubated for 7 days by CCK8 assay

MCF7 [4] = experiment: cells; settings: Homo sapiens, MCF7, 168 h
Description: Antiproliferative activity against human MCF7 cells assessed as inhibition of cell growth incubated for 7 days by CCK8 assay

MCF7 [5] = experiment: cells; settings: Homo sapiens, MCF7, 24 h, read-out: Activity
MCF7 [6] = experiment: Induction of apoptosis in human MCF7 cells assessed as late apoptotic cells at 3.3 uM incubated for 24 hrs by Annexin V-PE/7-AAD staining based flow cytometric analysis (Rvb= […]); format: functional
MCF7 [7] = experiment: Induction of apoptosis in human MCF7 cells assessed as early apoptotic cells at 10 uM incubated for 24 hrs by Annexin V-PE/7-AAD staining based flow cytometric analysis (Rvb= 1.3 %); format: functional
MCF7 [8] = experiment: Antitumor activity against human MCF7 cells xenografted in NCG mouse assessed as inhibition of tumor growth at 12.5 mg/kg,po administrated daily for 21 days relative to control; format: functional; settings: MCF7, 504 h, time 21 day, read-out: TGI
MCF7 [9] = experiment: cells; settings: Homo sapiens, MCF7, 24 h, read-out: Activity; remark: listed apart in the source
MCF7 [10] = experiment: Induction of apoptosis in human MCF7 cells assessed as necrotic cells at 10 uM incubated for 24 hrs by Annexin V-PE/7-AAD staining based flow cytometric analysis (Rvb= 0.4 %); format: functional
MCF7 [11] = experiment: Induction of apoptosis in human MCF7 cells assessed as late apoptotic cells at […] incubated for 24 hrs by Annexin V-PE/7-AAD staining based flow cytometric analysis (Rvb= […]); format: functional; settings: dose 1.1 µM
MCF7 [12] = experiment: Induction of apoptosis in human MCF7 cells assessed as necrotic cells at 3.3 uM incubated for 24 hrs by Annexin V-PE/7-AAD staining based flow cytometric analysis (Rvb= 0.4 %); format: functional
MCF7 [13] = experiment: Induction of apoptosis in human MCF7 cells assessed as necrotic cells at […] incubated for 24 hrs by Annexin V-PE/7-AAD staining based flow cytometric analysis (Rvb= 0.4 %); format: functional; settings: dose 1.1 µM
MCF7 [14] = experiment: Induction of apoptosis in human MCF7 cells assessed as early apoptotic cells at […] incubated for 24 hrs by Annexin V-PE/7-AAD staining based flow cytometric analysis (Rvb= 1.3 %); format: functional; settings: dose 1.1 µM
MCF7 [15] = experiment: Induction of apoptosis in human MCF7 cells assessed as early apoptotic cells at 3.3 uM incubated for 24 hrs by Annexin V-PE/7-AAD staining based flow cytometric analysis (Rvb= 1.3 %); format: functional
MCF7 [16] = experiment: Induction of apoptosis in human MCF7 cells assessed as late apoptotic cells at 10 uM incubated for 24 hrs by Annexin V-PE/7-AAD staining based flow cytometric analysis (Rvb= […]); format: functional
MCF7 [17] = experiment: cells; settings: Homo sapiens, MCF7, 24 h, read-out: Activity; remark: listed apart in the source

Sequence of Phosphatidylinositol 4,5-bisphosphate 3-kinase catalytic subunit beta isoform (P42338 whole entry, canonical isoform): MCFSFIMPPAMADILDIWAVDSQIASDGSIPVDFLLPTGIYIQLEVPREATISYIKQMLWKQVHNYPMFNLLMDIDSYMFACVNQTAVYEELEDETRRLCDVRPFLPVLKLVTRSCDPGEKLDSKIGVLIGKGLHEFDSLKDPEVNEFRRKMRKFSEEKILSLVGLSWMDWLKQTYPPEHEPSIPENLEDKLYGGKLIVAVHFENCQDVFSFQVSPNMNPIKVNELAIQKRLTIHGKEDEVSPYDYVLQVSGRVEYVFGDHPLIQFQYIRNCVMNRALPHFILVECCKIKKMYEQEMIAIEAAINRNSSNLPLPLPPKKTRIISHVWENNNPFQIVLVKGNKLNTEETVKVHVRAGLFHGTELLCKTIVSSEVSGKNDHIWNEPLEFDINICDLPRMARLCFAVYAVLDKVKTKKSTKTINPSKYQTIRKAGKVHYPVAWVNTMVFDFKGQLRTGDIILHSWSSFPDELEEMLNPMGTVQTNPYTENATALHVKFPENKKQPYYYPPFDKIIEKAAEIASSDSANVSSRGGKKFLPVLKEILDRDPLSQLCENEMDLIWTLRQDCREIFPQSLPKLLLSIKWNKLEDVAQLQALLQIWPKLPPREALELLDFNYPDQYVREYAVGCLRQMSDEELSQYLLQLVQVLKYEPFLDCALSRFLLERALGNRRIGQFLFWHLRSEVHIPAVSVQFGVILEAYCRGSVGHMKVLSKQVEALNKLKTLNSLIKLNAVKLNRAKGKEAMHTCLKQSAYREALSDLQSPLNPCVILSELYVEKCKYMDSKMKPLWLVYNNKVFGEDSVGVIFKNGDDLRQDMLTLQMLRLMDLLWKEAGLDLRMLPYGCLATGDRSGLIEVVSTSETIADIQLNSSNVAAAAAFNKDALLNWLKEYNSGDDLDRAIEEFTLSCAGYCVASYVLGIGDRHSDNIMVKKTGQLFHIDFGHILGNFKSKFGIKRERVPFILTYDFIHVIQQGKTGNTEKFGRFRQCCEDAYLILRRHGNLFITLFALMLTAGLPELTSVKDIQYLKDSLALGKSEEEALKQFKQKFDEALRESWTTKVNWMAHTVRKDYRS
Sequence of Phosphatidylinositol 4,5-bisphosphate 3-kinase catalytic subunit gamma isoform (P48736 whole entry, canonical isoform): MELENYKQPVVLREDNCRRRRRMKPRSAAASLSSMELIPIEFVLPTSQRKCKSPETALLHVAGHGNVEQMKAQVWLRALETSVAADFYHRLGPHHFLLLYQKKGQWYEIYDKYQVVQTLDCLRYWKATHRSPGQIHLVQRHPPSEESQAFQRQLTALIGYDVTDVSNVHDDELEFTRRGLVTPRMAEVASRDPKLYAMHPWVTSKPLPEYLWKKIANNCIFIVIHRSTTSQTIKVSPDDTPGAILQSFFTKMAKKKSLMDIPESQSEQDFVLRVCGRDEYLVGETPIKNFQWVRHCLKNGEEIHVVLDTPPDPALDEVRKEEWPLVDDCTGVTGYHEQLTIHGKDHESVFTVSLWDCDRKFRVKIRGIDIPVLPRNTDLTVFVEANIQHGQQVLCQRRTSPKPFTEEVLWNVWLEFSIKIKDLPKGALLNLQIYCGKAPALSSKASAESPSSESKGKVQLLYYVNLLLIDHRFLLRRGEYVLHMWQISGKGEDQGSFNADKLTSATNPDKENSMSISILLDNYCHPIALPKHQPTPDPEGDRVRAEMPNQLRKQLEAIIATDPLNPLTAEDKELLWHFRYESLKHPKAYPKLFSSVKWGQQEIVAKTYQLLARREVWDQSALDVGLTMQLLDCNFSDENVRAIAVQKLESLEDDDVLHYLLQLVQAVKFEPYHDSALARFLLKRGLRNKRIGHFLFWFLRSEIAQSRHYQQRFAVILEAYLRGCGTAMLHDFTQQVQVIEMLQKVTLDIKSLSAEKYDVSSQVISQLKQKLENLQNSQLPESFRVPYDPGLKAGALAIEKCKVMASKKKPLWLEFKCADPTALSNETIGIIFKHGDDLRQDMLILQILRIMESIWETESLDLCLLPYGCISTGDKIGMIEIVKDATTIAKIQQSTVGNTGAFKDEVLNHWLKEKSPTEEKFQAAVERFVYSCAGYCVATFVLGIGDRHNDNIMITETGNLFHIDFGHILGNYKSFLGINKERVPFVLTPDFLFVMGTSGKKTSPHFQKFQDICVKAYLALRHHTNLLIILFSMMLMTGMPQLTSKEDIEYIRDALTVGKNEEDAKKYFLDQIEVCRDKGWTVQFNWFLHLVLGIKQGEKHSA

Row | IC50 [1] [µM] | IC50 [2] [µM] | IC50 [3] [µM] | IC50 (T47D) [µM] | IC50 (MCF7 [4]) [µM] | SMILES | further results
1 | 0.702 |  |  |  |  | C[C@H](Oc1ccc2c(c1)OCc1ccc(-c3ccncn3)cc1-2)C(N)=O | 
2 | 0.352 | 0.94 | 3.25 |  |  | C[C@H](Oc1ccc2c(c1)OCc1ccc(-c3ccncc3)cc1-2)C(N)=O | 
3 | 1.16 | 7.09 | > 10 |  |  | C[C@H](Oc1ccc2c(c1)OCc1ccc(-c3ncccn3)cc1-2)C(N)=O | 
4 |  |  |  | 8.1 | 13.9 | C[C@H](Oc1ccc2c(c1)OCc1ccc(-c3ccccn3)cc1-2)C(N)=O | 
5 |  |  |  | 11.5 | 17.2 | C[C@H](Oc1ccc2c(c1)OCc1ccc(-c3ccn(C)n3)cc1-2)C(N)=O | 
6 |  |  |  | 24.9 | 21.9 | CC(C)n1nccc1-c1ccc2c(c1)-c1ccc(O[C@@H](C)C(N)=O)cc1OC2 | 
7 | 0.44 | 1.29 | 2.67 |  |  | C[C@H](Oc1ccc2c(c1)OCc1ccc(-c3cc[nH]n3)cc1-2)C(N)=O | 
8 |  |  |  | 0.4 | 0.6 | Cc1nc(NC(=O)N2CCC[C@H]2C(N)=O)sc1-c1ccnc(C(C)(C)C(F)(F)F)c1 [ALPELISIB] | viability at 3.3 µM (MCF7 [5]): 63.7%; Activity (MCF7 [6]): 16.1%; Activity (MCF7 [7]): 2.9%; inhibition in vivo at 12.5 mg/kg (MCF7 [8]): 88%; viability at […] (MCF7 [9]): 75%; Activity (MCF7 [10]): 33.6%; Activity (MCF7 [11]): 12.5%; Activity (MCF7 [12]): 16.3%; Activity (MCF7 [13]): 10.3%; Activity (MCF7 [14]): 2.2%; Activity (MCF7 [15]): 3.9%; Activity (MCF7 [16]): 15%; viability at 10 µM (MCF7 [17]): 48.5%
9 |  |  |  | 16.6 | 14.9 | C[C@H](Oc1ccc2c(c1)OCc1ccc(-c3cccnc3)cc1-2)C(N)=O | 
10 | 0.933 | 5.07 | 4.97 |  |  | C[C@H](Oc1ccc2c(c1)OCc1ccc(-c3ncnn3C)cc1-2)C(N)=O | 
